pIC50: −log10 of the molar value.
Test system: 242566-281-R-J2-PDC complex spheroid viability
Test: Anticancer human tumor 242566-281-R-J2-PDC patient-derived pancreatic carcinoma cell line growth inhibition [RAS]
Conditions: for pIC50: curve of first compound; for viability, T/C: stronger effect = lower value
Method in brief: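 Multi-cell-type spheroids: tumor cells plus HUVEC endothelial cells and mesenchymal stem cells. RAS-pathway inhibitors were combined with targeted agents, each dosed in half-log steps down from clinical Cmax, or from 10 microM when Cmax was unknown.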

[1] = second compound 0.000949 µM, first compound 0.000949 µM
[2] = second compound 0.000949 µM, first compound 0.003 µM
[3] = second compound 0.000949 µM, first compound 0.00949 µM
[4] = second compound 0.000949 µM, first compound 0.03 µM
[5] = second compound 0.000949 µM, first compound 0.0949 µM
[6] = second compound 0.000949 µM, first compound 0.3 µM
[7] = second compound 0.003 µM, first compound 0.000949 µM
[8] = second compound 0.003 µM, first compound 0.003 µM
[9] = second compound 0.003 µM, first compound 0.00949 µM
[10] = second compound 0.003 µM, first compound 0.03 µM
[11] = second compound 0.003 µM, first compound 0.0949 µM
[12] = second compound 0.003 µM, first compound 0.3 µM
[13] = second compound 0.00949 µM, first compound 0.000949 µM
[14] = second compound 0.00949 µM, first compound 0.003 µM
[15] = second compound 0.00949 µM, first compound 0.00949 µM
[16] = second compound 0.00949 µM, first compound 0.03 µM
[17] = second compound 0.00949 µM, first compound 0.0949 µM
[18] = second compound 0.00949 µM, first compound 0.3 µM
[19] = second compound 0.03 µM, first compound 0.000949 µM
[20] = second compound 0.03 µM, first compound 0.003 µM
[21] = second compound 0.03 µM, first compound 0.00949 µM
[22] = second compound 0.03 µM, first compound 0.03 µM
[23] = second compound 0.03 µM, first compound 0.0949 µM
[24] = second compound 0.03 µM, first compound 0.3 µM
[25] = second compound 0.0949 µM, first compound 0.000949 µM
[26] = second compound 0.0949 µM, first compound 0.003 µM
[27] = second compound 0.0949 µM, first compound 0.00949 µM
[28] = second compound 0.0949 µM, first compound 0.03 µM
[29] = second compound 0.0949 µM, first compound 0.0949 µM
[30] = second compound 0.0949 µM, first compound 0.3 µM
[31] = second compound 0.3 µM, first compound 0.000949 µM
[32] = second compound 0.3 µM, first compound 0.003 µM
[33] = second compound 0.3 µM, first compound 0.00949 µM
[34] = second compound 0.3 µM, first compound 0.03 µM
[35] = second compound 0.3 µM, first compound 0.0949 µM
[36] = second compound 0.3 µM, first compound 0.3 µM
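Also: spheroids exposed to compound for 7 days before readout.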
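For viability, T/C in this document: 100% = DMSO vehicle control wells.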

`C=CC(=O)N1CCN(c2nc(OCC3CCCN3C)nc3c(F)c(-c4nc(N)cc(C)c4C(F)(F)F)c(Cl)cc23)C(C)C1` (stereo unspecified) + CCn1c(-c2cccnc2C(C)OC)c2c3cc(ccc31)N1CCOC(CC(NC(=O)C(C(C)C)N(C)C(=O)C3(F)CCN(C(=O)C#CC(C)(C)N(C)C)CC3)C(=O)N3CCCC(N3)C(=O)OCC(C)(C)C2)C1 was tested, and the pIC50 (second compound 0.000949 µM) was < 6.00, the pIC50 (second compound 0.003 µM) was < 6.00 and the pIC50 (second compound 0.00949 µM) was < 6.00. The pIC50 (second compound 0.03 µM) was < 6.00, the pIC50 (second compound 0.0949 µM) was < 6.00 and the pIC50 (second compound 0.3 µM) was < 6.00. The viability, T/C (second compound 0.000949 µM, first compound 0.00316 µM) was 111%, the viability, T/C (second compound 0.000949 µM, first compound 0.01 µM) was 98.5% and the viability, T/C (second compound 0.000949 µM, first compound 0.0316 µM) was 88.2%. The viability, T/C (second compound 0.000949 µM, first compound 0.1 µM) was 113%, the viability, T/C (second compound 0.000949 µM, first compound 0.316 µM) was 93.8% and the viability, T/C (second compound 0.000949 µM, first compound 1 µM) was 79.2%. It also gave a viability, T/C (second compound 0.003 µM, first compound 0.00316 µM) of 115%, a viability, T/C (second compound 0.003 µM, first compound 0.01 µM) of 93.2% and a viability, T/C (second compound 0.003 µM, first compound 0.0316 µM) of 99.8%. It also gave a viability, T/C (second compound 0.003 µM, first compound 0.1 µM) of 84.8%, a viability, T/C (second compound 0.003 µM, first compound 0.316 µM) of 95.4% and a viability, T/C (second compound 0.003 µM, first compound 1 µM) of 86.7%. It also gave a viability, T/C (second compound 0.00949 µM, first compound 0.00316 µM) of 103%, a viability, T/C (second compound 0.00949 µM, first compound 0.01 µM) of 87% and a viability, T/C (second compound 0.00949 µM, first compound 0.0316 µM) of 79.5%. For the same compound, the viability, T/C (second compound 0.00949 µM, first compound 0.1 µM) was 76%, the viability, T/C (second compound 0.00949 µM, first compound 0.316 µM) was 93.1% and the viability, T/C (second compound 0.00949 µM, first compound 1 µM) was 83.9%. For the same compound, the viability, T/C (second compound 0.03 µM, first compound 0.00316 µM) was 98.6%, the viability, T/C (second compound 0.03 µM, first compound 0.01 µM) was 110% and the viability, T/C (second compound 0.03 µM, first compound 0.0316 µM) was 97.5%. It also gave a viability, T/C (second compound 0.03 µM, first compound 0.1 µM) of 92.7%, a viability, T/C (second compound 0.03 µM, first compound 0.316 µM) of 78% and a viability, T/C (second compound 0.03 µM, first compound 1 µM) of 99.8%. For the same compound, the viability, T/C (second compound 0.0949 µM, first compound 0.00316 µM) was 86.6%, the viability, T/C (second compound 0.0949 µM, first compound 0.01 µM) was 93.5% and the viability, T/C (second compound 0.0949 µM, first compound 0.0316 µM) was 92.6%. It also gave a viability, T/C (second compound 0.0949 µM, first compound 0.1 µM) of 86.9%, a viability, T/C (second compound 0.0949 µM, first compound 0.316 µM) of 87% and a viability, T/C (second compound 0.0949 µM, first compound 1 µM) of 90.5%. For the same compound, the viability, T/C (second compound 0.3 µM, first compound 0.00316 µM) was 85.7%, the viability, T/C (second compound 0.3 µM, first compound 0.01 µM) was 87.3% and the viability, T/C (second compound 0.3 µM, first compound 0.0316 µM) was 89.2%. It also gave a viability, T/C (second compound 0.3 µM, first compound 0.1 µM) of 75.7%, a viability, T/C (second compound 0.3 µM, first compound 0.316 µM) of 95.1% and a viability, T/C (second compound 0.3 µM, first compound 1 µM) of 81.7%.

For `CC1(C)CCC(Nc2ncc(C(F)(F)F)c(-c3c[nH]c4c(P(C)(C)=O)c(C#N)ccc34)n2)CN1` (stereo unspecified) + CCn1c(-c2cccnc2C(C)OC)c2c3cc(ccc31)N1CCOC(CC(NC(=O)C(C(C)C)N(C)C(=O)C3(F)CCN(C(=O)C#CC(C)(C)N(C)C)CC3)C(=O)N3CCCC(N3)C(=O)OCC(C)(C)C2)C1, the pIC50 (second compound 0.000949 µM) was < 6.52, the pIC50 (second compound 0.003 µM) was < 6.52 and the pIC50 (second compound 0.00949 µM) was < 6.52. The pIC50 (second compound 0.03 µM) was < 6.52, the pIC50 (second compound 0.0949 µM) was < 6.52 and the pIC50 (second compound 0.3 µM) was < 6.52. The viability, T/C [1] was 114%, the viability, T/C [2] was 100% and the viability, T/C [3] was 77.1%. For the same compound, the viability, T/C [4] was 97.6%, the viability, T/C [5] was 94% and the viability, T/C [6] was 70.7%. For the same compound, the viability, T/C [7] was 111%, the viability, T/C [8] was 86% and the viability, T/C [9] was 82.8%. The viability, T/C [10] was 88.2%, the viability, T/C [11] was 95.4% and the viability, T/C [12] was 73.6%. It also gave a viability, T/C [13] of 109%, a viability, T/C [14] of 86.5% and a viability, T/C [15] of 92.3%. For the same compound, the viability, T/C [16] was 90.7%, the viability, T/C [17] was 90.5% and the viability, T/C [18] was 82.9%. It also gave a viability, T/C [19] of 95.4%, a viability, T/C [20] of 103% and a viability, T/C [21] of 96%. For the same compound, the viability, T/C [22] was 91.1%, the viability, T/C [23] was 70.4% and the viability, T/C [24] was 93.4%. For the same compound, the viability, T/C [25] was 88.2%, the viability, T/C [26] was 93.4% and the viability, T/C [27] was 90.3%. It also gave a viability, T/C [28] of 84.8%, a viability, T/C [29] of 64.8% and a viability, T/C [30] of 79.2%. For the same compound, the viability, T/C [31] was 91%, the viability, T/C [32] was 83.9% and the viability, T/C [33] was 75.2%. It also gave a viability, T/C [34] of 63.8%, a viability, T/C [35] of 71.8% and a viability, T/C [36] of 79.8%.

With `CCc1c2c(nc3ccc(O)cc13)-c1cc3c(c(=O)n1C2)COC(=O)[C@]3(O)CC` + CCn1c(-c2cccnc2C(C)OC)c2c3cc(ccc31)N1CCOC(CC(NC(=O)C(C(C)C)N(C)C(=O)C3(F)CCN(C(=O)C#CC(C)(C)N(C)C)CC3)C(=O)N3CCCC(N3)C(=O)OCC(C)(C)C2)C1 the pIC50 (second compound 0.000949 µM) was 7.74, the pIC50 (second compound 0.003 µM) was 7.77 and the pIC50 (second compound 0.00949 µM) was 7.69. For the same compound, the pIC50 (second compound 0.03 µM) was 7.70, the pIC50 (second compound 0.0949 µM) was 7.73 and the pIC50 (second compound 0.3 µM) was 7.96. For the same compound, the viability, T/C [1] was 101%, the viability, T/C [2] was 92.3% and the viability, T/C [3] was 59.5%. For the same compound, the viability, T/C [4] was 39.7%, the viability, T/C [5] was 25.5% and the viability, T/C [6] was 11.6%. It also gave a viability, T/C [7] of 106%, a viability, T/C [8] of 79.5% and a viability, T/C [9] of 63.7%. It also gave a viability, T/C [10] of 37.4%, a viability, T/C [11] of 24.7% and a viability, T/C [12] of 10.6%. The viability, T/C [13] was 105%, the viability, T/C [14] was 76.1% and the viability, T/C [15] was 68.5%. The viability, T/C [16] was 45%, the viability, T/C [17] was 20.7% and the viability, T/C [18] was 11.8%. The viability, T/C [19] was 100%, the viability, T/C [20] was 79.5% and the viability, T/C [21] was 73.9%. For the same compound, the viability, T/C [22] was 38.3%, the viability, T/C [23] was 17.6% and the viability, T/C [24] was 11.6%. It also gave a viability, T/C [25] of 84.5%, a viability, T/C [26] of 77.8% and a viability, T/C [27] of 68%. It also gave a viability, T/C [28] of 38.5%, a viability, T/C [29] of 14.4% and a viability, T/C [30] of 10.3%. It also gave a viability, T/C [31] of 84.4%, a viability, T/C [32] of 70.1% and a viability, T/C [33] of 56.5%. It also gave a viability, T/C [34] of 25.4%, a viability, T/C [35] of 12.4% and a viability, T/C [36] of 7.96%.
